Measured values published in patent publication US5543426A, “Use of certain 3,7-disubstituted indole compounds for treating depression or cognitive disorders” (priority 1990, dated 1996).

Columns and labels:
mice = assay: social stress model: plasma corticosterone rise induced by an aggressive, inaccessible male mouse; assay type: in vivo; details: p.o., 0.1 to 1 mg/kg
Procedure: The compounds of the invention also reduce the plasma corticosterone rise induced in mice by the presence of an aggressive, but inaccessible male mouse. Compounds of the invention when given p.o. for 14 days at a dosage of from about 0.1 to 10 mg/kg restore the plasma corticosterone level to normal.
The Example compound is preferred.

5-HT3 binding sites = target: T1, 5-HT3 binding sites (Mus musculus, UniProt P23979); assay: binding to 5-HT3 binding sites, N1E-115 cells (method of Hoyer and Neijt)
T1 construct: endogenous in cells; host or cells: N1E-115
Text: 1. their potent and selective binding properties to 5-HT3 binding sites, e.g. to N1E-115 cells measured according to the method disclosed by D. Hoyer and H.C. Neijt, Mol. Pharm., 33, 303-309.

Benzold Jarisch Reflex = assay: blockade of the Benzold Jarisch Reflex (method of Fozard); assay type: in vivo; details: read-out: ID50, blockade of the Benzold Jarisch Reflex
Procedure: Pharmacol., 326, 36-44 (1984). Example compound has an ID50 of 70 μg/kg.

gastric emptying in rats = assay: gastric emptying of glass spheres in rats; assay type: in vivo; details: Rattus norvegicus, ip, given 15 min before 25 glass spheres, emptying measured 5, 10, 15 and 30 min after, read-out: ED50, promoting effect on gastric emptying
Procedure: 2. their promoting effect on gastric emptying in rats as indicated in standard in vivo tests when administered i.p. at doses of about 0.01 to about 1 mg/kg. The compounds to be tested are administered 15 min. before the administration of 25 glass spheres and gastric emptying is measured 5, 10, 15 and 30 min. after administration of the spheres. Example compound has an ED50 of 0.2 mg/kg i.p.

T1 sequence (P23979 24-489): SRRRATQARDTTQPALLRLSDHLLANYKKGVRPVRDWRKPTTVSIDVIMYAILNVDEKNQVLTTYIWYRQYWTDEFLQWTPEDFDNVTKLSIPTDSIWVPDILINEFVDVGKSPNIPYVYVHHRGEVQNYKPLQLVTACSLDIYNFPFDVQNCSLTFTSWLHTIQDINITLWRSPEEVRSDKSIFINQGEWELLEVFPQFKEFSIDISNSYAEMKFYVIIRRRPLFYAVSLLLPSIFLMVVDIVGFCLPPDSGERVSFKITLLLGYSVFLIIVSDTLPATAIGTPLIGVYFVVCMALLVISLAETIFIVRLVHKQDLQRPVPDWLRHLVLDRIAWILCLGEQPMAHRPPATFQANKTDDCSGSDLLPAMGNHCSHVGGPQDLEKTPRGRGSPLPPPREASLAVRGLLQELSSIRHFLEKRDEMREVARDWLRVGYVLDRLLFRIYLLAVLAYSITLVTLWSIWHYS

SMILES: COc1cccc2c(C(=O)O[C@H]3C[C@H]4CC[C@@H](C3)N4C)c[nH]c12 [Example compound, 7-Methoxy-1H-indol-3-carboxylic acid-(1αH, 5αH)-8-methyl-8-aza-bicyclo3,2,1oct-3α-yl-ester]
- stress-induced corticosterone concentration in plasma (mice): reduces the stress-induced corticosterone concentration in plasma
- Kd (5-HT3 binding sites): 1.35 nM
- ED50 (Benzold Jarisch Reflex): 0.07 mg/kg
- ED50 (gastric emptying in rats): 0.2 mg/kg
